Biological target: T1, PhlH (2P24_PhlH) (Pseudomonas fluorescens, UniProt Q4JIX5)
T1 construct: purified recombinant His6-tagged PhlH
Assay: ITC ([…] °C, one-site model); EMSA shows PLT releases PhlH from phlG promoter DNA
Format: binding

T1 sequence (Q4JIX5 entry or part of it): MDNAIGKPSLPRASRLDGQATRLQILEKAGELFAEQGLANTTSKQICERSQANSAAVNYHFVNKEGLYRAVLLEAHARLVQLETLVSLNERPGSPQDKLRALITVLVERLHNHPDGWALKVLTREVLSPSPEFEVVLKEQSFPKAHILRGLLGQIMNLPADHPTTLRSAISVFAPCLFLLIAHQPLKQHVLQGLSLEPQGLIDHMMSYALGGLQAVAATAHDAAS

SMILES: O=C(c1cc(Cl)c(Cl)[nH]1)c1c(O)cccc1O [PLT, pyoluteorin]
- Kd: 1000 nM
